Test results reported in PubChem BioAssay (NCI).
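Five concentrations, 48 hours, 96-well plates. GI50 is the concentration that inhibits growth by half. TGI denotes the concentration required for complete inhibition of growth.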

Assays:
Experiment in all cases: NCI-60 cell line screen, 48 h
[1] = system: DU-145 prostate
[2] = system: MCF7 breast
[3] = system: U251 CNS
[4] = system: BT-549 breast
[5] = system: MDA-MB-231 breast
[6] = system: HS 578T breast

| SMILES | GI50 [1] [µM] | TGI [1] [µM] | GI50 [2] [µM] | TGI [2] [µM] | GI50 [3] [µM] | TGI [3] [µM] | GI50 [4] [µM] | TGI [4] [µM] | GI50 [5] [µM] | TGI [5] [µM] | GI50 [6] [µM] | TGI [6] [µM] |
| --- | --- | --- | --- | --- | --- | --- | --- | --- | --- | --- | --- | --- |
| CCNCCNc1cc(-c2ccc(C(F)(F)F)cc2)c(C#N)c2nc3ccccc3n12 | 1.44 | 2.78 | 0.642 | 2.18 | 0.466 | 1.61 | 1.59 | 3.16 | 1.16 | 2.52 | 1.96 | 4.39 |
| COc1cc2c(cc1OCCCCC(=O)Nc1cc3c4ccccc4ccc3c3ccccc13)N=C[C@@H]1CCCN1C2=O | 2.84 | 14.1 | 3.45 | 34.1 | 8.02 | > 100 | – | – | 1.06 | 17 | 17.7 | > 100 |
| COc1cc(OC)c(C(=O)/C=C/c2cccc(C(F)(F)F)c2)c(OC)c1 | 1.73 | 6.08 | 1.12 | 7.38 | 1.01 | 2.1 | 1.08 | 2.84 | 1.76 | 6.05 | 3.93 | 28.6 |
| C=C1C(=O)O[C@H]2[C@H]1CC/C(COC(=O)NCCCCNC(=O)OC/C1=C/CC[C@@]3(C)O[C@H]3[C@H]3OC(=O)C(=C)[C@@H]3CC1)=C\CC[C@@]1(C)O[C@@H]21 | 3.21 | 10.5 | – | – | 2.94 | 9.83 | 1.6 | 3.63 | 1.53 | 3.24 | 2.54 | 8.14 |
| COc1ccc(C(=O)c2cc(OC)c(OC)c(OC)c2)cc1/C=C/C(=O)c1ccc(F)cc1 | 7.72 | 21 | 2.3 | 11.1 | 1.85 | 3.54 | 3.27 | 13.1 | 4.72 | 84.5 | 4.48 | > 100 |
| O=C1c2cccnc2-c2nc(-c3ccc(Cl)cc3)cc3c2c1nc1ccccc13 | 75.4 | > 100 | 18.8 | 75.4 | 9.24 | 37.1 | 18 | 51.1 | 44.1 | > 100 | 29 | > 100 |
| Cc1cc(NC(=S)SCc2ccc(F)cc2)c([N+](=O)[O-])cc1C | – | > 100 | – | > 100 | – | 57.5 | – | 59.1 | – | 34.6 | – | 46.6 |
| COc1ccc(C(=O)c2cc(C)c(OC)c(C)c2)cc1OC(=O)CCl | < 0.01 | > 100 | < 0.01 | > 100 | < 0.01 | > 100 | < 0.01 | 40.5 | < 0.0112 | > 100 | < 0.01 | 98.5 |
| NC(=O)c1cc(Cl)ccc1NC(=O)/C=C/c1ccccc1 | 3.3 | > 24.4 | 1.78 | > 100 | 2.95 | > 35.4 | 4.66 | > 100 | 2.6 | > 100 | 3.17 | > 24.5 |
| CCc1nc(N)nc(N)c1-c1ccc(NC)c([N+](=O)[O-])c1 | – | > 100 | – | > 87.3 | – | > 100 | – | > 100 | – | > 100 | – | > 100 |
| COc1c(C(=O)/C=C/c2ccccc2)c(O)cc2occc12 | 3.81 | 13.2 | 3.52 | 17.2 | 4.39 | 16.1 | 7.72 | 27.8 | 4.38 | 17.5 | 2.76 | 8.36 |
| COc1ccc(C[N+](C)(C)N)cc1OC | > 100 | > 100 | > 100 | > 100 | > 100 | > 100 | > 100 | > 100 | > 100 | > 100 | > 100 | > 100 |
| Cc1cc(C)c(NC(=O)c2sc3nc4c(cc3c2N)C(=O)CCC4)c(C)c1 | 3.36 | > 100 | 2.09 | > 100 | 3.49 | > 100 | 7.29 | > 35.4 | 7.26 | > 100 | 4.51 | > 100 |
| O=S(=O)(c1ccc(NC(=S)NC23CC4CC(CC(C4)C2)C3)cc1)N1CCCCC1 | 4.09 | > 100 | 3.18 | > 100 | 2.92 | 13.3 | 3 | 9.4 | 2.41 | 5.6 | 4.87 | > 100 |
| Nc1nc(Nc2cccnc2)sc1C(=O)c1ccccc1F | 3.38 | > 100 | 1.94 | 8.41 | 2.71 | > 100 | 1.64 | 6.54 | 3.47 | > 100 | 3.02 | 10.8 |
| CC/C=C\C[C@H](O)C/C=C1/C(=O)C=C[C@@H]1C/C=C\CCCC(=O)OC | 4.07 | 15.2 | 0.376 | 3.62 | 1.63 | 4.07 | 2.15 | 6.07 | 2.94 | 9.23 | 5.18 | 40.1 |
| Cc1ccc(NC(=O)c2cccc(C(C)(C)C#N)c2)cc1Nc1ccc2ncn(C)c(=O)c2c1 | 5.66 | > 100 | 4.4 | > 100 | 7.19 | > 100 | 5.17 | > 100 | < 0.0239 | > 29 | 8.65 | > 100 |
| COc1ccc(/C=C/c2c(C(=O)/C=C/c3ccccc3)c(C)nc3ccccc23)cc1 | 1.68 | 3.16 | 1.37 | 7.74 | 1.61 | 2.96 | 2 | 5.18 | 2.43 | 7.87 | – | – |
| CCCC(CCC)NCC(O)c1cc(-c2ccc(C(F)(F)F)cc2)nc(C(F)(F)F)c1 (stereo not drawn) | 1.94 | 3.39 | 1.43 | 2.87 | 1.74 | 3.22 | – | – | 1.53 | 3.17 | 1.69 | 4.14 |
